Assays:
TNKS2 = molecular target: T1, TNKS2 (Homo sapiens, UniProt Q9H2K2); test: Modified TNKS2 Assay 3 (BPS kit #80578, biotin-NAD+, 96 well); type: biochemical; conditions: human TNKS2, BPS kit #80578, 96 well
T1 sequence (Q9H2K2 1-1166): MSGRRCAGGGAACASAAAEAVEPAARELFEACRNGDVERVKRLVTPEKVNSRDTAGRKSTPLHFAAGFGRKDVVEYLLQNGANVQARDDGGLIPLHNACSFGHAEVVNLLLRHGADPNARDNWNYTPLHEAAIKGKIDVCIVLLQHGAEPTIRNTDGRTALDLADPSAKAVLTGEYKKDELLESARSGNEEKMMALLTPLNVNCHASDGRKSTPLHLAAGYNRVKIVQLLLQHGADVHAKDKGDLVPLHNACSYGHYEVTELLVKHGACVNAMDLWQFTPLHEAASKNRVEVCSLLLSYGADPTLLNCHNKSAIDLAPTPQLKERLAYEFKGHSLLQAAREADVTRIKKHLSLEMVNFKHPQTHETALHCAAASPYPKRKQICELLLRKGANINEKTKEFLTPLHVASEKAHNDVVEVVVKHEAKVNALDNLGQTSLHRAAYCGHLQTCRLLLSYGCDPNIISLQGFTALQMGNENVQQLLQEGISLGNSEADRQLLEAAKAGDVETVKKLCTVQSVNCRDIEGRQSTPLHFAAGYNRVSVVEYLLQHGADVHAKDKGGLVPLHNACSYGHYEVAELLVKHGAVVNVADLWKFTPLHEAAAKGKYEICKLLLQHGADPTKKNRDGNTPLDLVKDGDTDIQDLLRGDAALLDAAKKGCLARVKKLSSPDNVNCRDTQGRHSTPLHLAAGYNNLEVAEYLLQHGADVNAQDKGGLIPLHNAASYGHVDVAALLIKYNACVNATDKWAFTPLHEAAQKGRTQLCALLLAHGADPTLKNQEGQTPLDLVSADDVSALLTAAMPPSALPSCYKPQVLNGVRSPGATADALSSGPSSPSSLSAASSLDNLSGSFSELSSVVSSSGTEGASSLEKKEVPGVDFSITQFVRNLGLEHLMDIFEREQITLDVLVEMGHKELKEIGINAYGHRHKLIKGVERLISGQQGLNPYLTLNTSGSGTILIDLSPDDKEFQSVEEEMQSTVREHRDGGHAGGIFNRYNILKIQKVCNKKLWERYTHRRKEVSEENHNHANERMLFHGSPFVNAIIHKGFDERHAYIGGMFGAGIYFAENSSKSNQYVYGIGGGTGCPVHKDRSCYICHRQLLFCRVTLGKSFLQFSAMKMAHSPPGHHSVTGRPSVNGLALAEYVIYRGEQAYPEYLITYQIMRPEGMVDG
Protocol: The potency of the compounds against human TNKS2 according to the invention was assessed using a commercially available biotin/streptavidin binding assay kits from BPS Bioscience, San Diego, USA (Catalog #80578 for TNKS2). The incorporation of a biotin-labeled NAD+ during the […] catalyzed ribosylation of a suitable protein substrate was detected using with a streptavidin-HRP coupled chemi-luminescent readout. The intensity of the readout signal is proportional to the incorporated NAD^+. Inhibition of TNKS2 leads to a decreased incorporation of NAD^+ and consequently to a lower readout signal intensity in the corresponding TNKS2 assays. The concentration of a test compound that inhibits the enzyme activity by 50% (corresponds to half of the normed readout signal intensity) is reported as IC50. The assay conducted in a 96 well MTP format according to the manufacturer's protocol and using a BMG Pherastar MTP reader [BMG-Labtech, Offenburg, Germany].

[1] = test system: HEK293 FOP control reporter cell line; test: HEK293 FOP Assay (FOP control vector luciferase reporter); type: cell-based; conditions: Homo sapiens; HEK293 FOP control reporter cell line, 16 hours incubation, compound dilution series 50 μM to 15 nM
How it was run: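 Compound series 50 μM to 15 nM, 3.16-fold steps, were diluted in CAFTY buffer (pH 7.4, 2 mM Ca2+, 0.01% BSA) and tested alongside the TOP reporter line. Human Wnt-3a was added at 2500–5 ng/ml in two-fold steps. The control HEK293 line stably holds an FOP vector whose TCF elements are randomized and non-functional.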

[2] = test system: wildtype Wnt signaling cascade; test: HEK293 TOP Assay (Super TopFlash luciferase reporter, Wnt-3a stimulated); type: cell-based; conditions: Homo sapiens, HEK293, 16 h, HEK293 TOP reporter cell line, Wnt-3a at EC50, 16 hours incubation, compound dilution series 50 μM to 15 nM
How it was run: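 Compounds (50 μM down to 15 nM, 3.16-fold steps, in CAFTY buffer pH 7.4, 2 mM Ca2+, 0.01% BSA) tested in parallel on TOP and FOP HEK293 reporter lines to define selective wildtype Wnt inhibition. Pathway driven by recombinant human Wnt-3a applied at 2500–5 ng/ml in two-fold dilutions.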

IC50 (TNKS2) | IC50 [2] | SMILES | IC50 [1]
20 nM | 650 nM | O=C(Nc1ccc(NC(=O)c2nc[nH]c2C(=O)NCCCCN2CCCCC2)cc1)c1ccc(F)cc1Cl [Example 196, N^4-{4-[(2-chloro-4-fluorobenzoyl)amino]phenyl}-N^5-[4-(piperidin-1-yl)butyl]-1H-imidazole-4,5-dicarboxamide] | 30000 nM
< 0.5 nM | 80 nM | O=C(Nc1ccc(NC(=O)c2nc[nH]c2C(=O)NCCN2CCCC2)cc1)c1ccccc1Cl [Example 168, N^4-{4-[(2-chlorobenzoyl)amino]phenyl}-N^5-[2-(pyrrolidin-1-yl)ethyl]-1H-imidazole-4,5-dicarboxamide] | 27000 nM
2 nM | 180 nM | CN1CCN(CCNC(=O)c2[nH]cnc2C(=O)Nc2ccc(NC(=O)c3ccc(F)cc3Cl)cc2)CC1 [Example 238, N^4-{4-[(2-chloro-4-fluorobenzoyl)amino]phenyl}-N^5-[2-(4-methylpiperazin-1-yl)ethyl]-1H-imidazole-4,5-dicarboxamide] | 29000 nM
20 nM | 310 nM | O=C(Nc1ccc(NC(=O)c2nc[nH]c2C(=O)NCCCN2CCOCC2)cc1)c1ccc(F)cc1Cl [Example 204, N^4-{4-[(2-chloro-4-fluorobenzoyl)amino]phenyl}-N^5-[3-(morpholin-4-yl)propyl]-1H-imidazole-4,5-dicarboxamide] | 34500 nM
2 nM | 190 nM | O=C(Nc1ccc(NC(=O)c2nc[nH]c2C(=O)NCCN2CCC2)cc1)c1ccccc1Cl [Example 190, N^5-[2-(azetidin-1-yl)ethyl]-N4-{4-[(2-chlorobenzoyl)amino]phenyl}-1H-imidazole-4,5-dicarboxamide] | 18000 nM
20 nM | 270 nM | CC(CN1CCOCC1)NC(=O)c1[nH]cnc1C(=O)Nc1ccc(NC(=O)c2ccccc2Cl)cc1 (stereo not drawn) [Example 162, N^4-{4-[(2-chlorobenzoyl)amino]phenyl}-N^5-[1-(morpholin-4-yl)propan-2-yl]-1H-imidazole-4,5-dicarboxamide] | 
< 0.5 nM | 110 nM | O=C(Nc1ccc(NC(=O)c2nc[nH]c2C(=O)NCCN2CCC2)cc1)c1ccc(F)cc1Cl [Example 198, N^5-[2-(azetidin-1-yl)ethyl]-N^4-{4-[(2-chloro-4-fluorobenzoyl)amino]phenyl}-1H-imidazole-4,5-dicarboxamide] | 
1 nM | 140 nM | O=C(Nc1ccc(NC(=O)c2nc[nH]c2C(=O)NCCN2CCC(O)CC2)cc1)c1ccccc1Cl [Example 197, N^4-{4-[(2-chlorobenzoyl)amino]phenyl}-N^5-[2-(4-hydroxypiperidin-1-yl)ethyl]-1H-imidazole-4,5-dicarboxamide] | 
5 nM | 190 nM | CC1CCCCN1CCNC(=O)c1[nH]cnc1C(=O)Nc1ccc(NC(=O)c2ccccc2Cl)cc1 (stereo not drawn) [Example 153, N^4-{4-[(2-chlorobenzoyl)amino]phenyl}-N^5-[2-(2-methylpiperidin-1-yl)ethyl]-1H-imidazole-4,5-dicarboxamide] | 35000 nM

The next lines start with the compound.

SMILES | IC50 (TNKS2) | IC50 [2] | IC50 [1]
O=C(Nc1ccc(NC(=O)c2nc[nH]c2C(=O)NCCN2CCCC(O)C2)cc1)c1ccc(F)cc1Cl (stereo not drawn) [Example 229, N^4-{4-[(2-chloro-4-fluorobenzoyl)amino]phenyl}-N^5-[2-(3-hydroxypiperidin-1-yl)ethyl]-1H-imidazole-4,5-dicarboxamide] | 4 nM | 110 nM | 44500 nM
CC(CNC(=O)c1[nH]cnc1C(=O)Nc1ccc(NC(=O)c2ccc(F)cc2Cl)cc1)N1CCCCC1 (stereo not drawn) [Example 170, N^4-{4-[(2-chloro-4-fluorobenzoyl)amino]phenyl}-N^5-[2-(piperidin-1-yl)propyl]-1H-imidazole-4,5-dicarboxamide] | 2 nM | 180 nM | 
CC1CCN(CCNC(=O)c2[nH]cnc2C(=O)Nc2ccc(NC(=O)c3ccccc3Cl)cc2)CC1 [Example 163, N^4-{4-[(2-chlorobenzoyl)amino]phenyl}-N^5-[2-(4-methylpiperidin-1-yl)ethyl]-1H-imidazole-4,5-dicarboxamide] | 10 nM | 100 nM | 37000 nM
CC(CNC(=O)c1[nH]cnc1C(=O)Nc1ccc(NC(=O)c2ccc(F)cc2Cl)cc1)N1CCN(C)CC1 (stereo not drawn) [Example 185, N^4-{4-[(2-chloro-4-fluorobenzoyl)amino]phenyl}-N^5-[2-(4-methylpiperazin-1-yl)propyl]-1H-imidazole-4,5-dicarboxamide] | 20 nM | 200 nM | 
CC1CCCCN1CCNC(=O)c1[nH]cnc1C(=O)Nc1ccc(NC(=O)c2ccc(F)cc2Cl)cc1 (stereo not drawn) [Example 191, N^4-{4-[(2-chloro-4-fluorobenzoyl)amino]phenyl}-N^5-[2-(2-methylpiperidin-1-yl)ethyl]-1H-imidazole-4,5-dicarboxamide] | 2 nM | 40 nM | 31000 nM
CC(C)(CNC(=O)c1[nH]cnc1C(=O)Nc1ccc(NC(=O)c2ccc(F)cc2Cl)cc1)N1CCCCC1 [Example 159, N^4-{4-[(2-chloro-4-fluorobenzoyl)amino]phenyl}-N^5-[2-methyl-2-(piperidin-1-yl)propyl]-1H-imidazole-4,5-dicarboxamide] | 2 nM | 90 nM | 

Reference: patent US9884063B2, “Amido-substituted azole compounds” (Bayer Pharma Aktiengesellschaft, priority 2014, dated 2018)
